Here are results for ten molecules from patent US20230114728A1 (Venatorx Pharmaceuticals, Inc., priority 2019, published 2023).

Test [1] has as its target T1, E. coli K12 PBP3 (Escherichia coli, UniProt P0AD68).
T1 construct: made in house
Put plainly: biochemical. In kind it is binding. Summed up:
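A. baumannii PBP2 (2.5 μM) and PBP3 (0.2 μM) were run in 25 mM Tris pH 8.0 buffer with Tween 20; E. coli PBP3 (1.5 μM) and N. gonorrhoeae PBP2 ([…]) in 50 mM Hepes pH 8.0 buffer.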

The target of test [2] is T2, P. aeruginosa PBP3 (Pseudomonas aeruginosa, UniProt G3XD46).
T2 construct: made in house
Put plainly: Bocillin-FL fluorescence polarization competition binding assay, P. aeruginosa PBP3. The note with it: fluorescence polarization competition binding assay using Bocillin-FL. Summed up:
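Inhibitor competition with Bocillin-FL for P. aeruginosa PBP3 was followed by fluorescence polarization on a Cytation3 (BioTek) reader, using g-factor 0.96, 490 nm excitation and 520 nm emission. The enzyme was at 0.75 μM and the probe at 0.1 μM in Hepes/NaCl/glycerol buffer, 80 μl per well. FP was recorded immediately after probe addition for up to 60 minutes. Potency was expressed as EC50, the concentration that reduces bound probe by 50%.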
(Fluorescence polarisation rises when a labelled molecule tumbles more slowly, as on binding a larger partner.)

Test [3] relates to N. gonorrhoeae ATCC 49226. Put plainly: Liquid broth MIC in Fastidious broth. The conditions noted are these: Neisseria gonorrhoeae, ATCC49226; N. gonorrhoeae strain ATCC 49226; Fastidious broth; read-out: Minimum Inhibitory Concentration, N. gonorrhoeae ATCC 49226. The test is classed as cell-based. Summed up:
(§1)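 Colonies were swabbed from chocolate agar after 24 h growth and standardised by optical density at 600 nm. Compounds were serially diluted twofold in Fastidious broth, and bacteria added to give 5×10^5 CFU/mL. After about 24 h at 36 °C in 5% CO2, the lowest concentration allowing under 10% growth was taken as MIC.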

Test [4] has as its system N. gonorrhoeae FA1090. Description: Liquid broth MIC in Fastidious broth. The test is classed as cell-based. The note with it: Neisseria gonorrhoeae; N. gonorrhoeae strain FA1090; Fastidious broth; read-out: Minimum Inhibitory Concentration, N. gonorrhoeae FA1090. In short, it runs like this:
as §1

In test [5] the test system is N. gonorrhoeae H041. Description: Liquid broth MIC in Fastidious broth. The test is classed as cell-based. The note with it: Neisseria gonorrhoeae, H041, read-out: Minimum Inhibitory Concentration, N. gonorrhoeae H041. Summed up: (§2)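 Broth microdilution against gonococcal strains expressing mosaic PBP2, starting inoculum 5×10^5 CFU/mL in Fastidious broth. Incubation runs ~24 h at 36 °C under 5% CO2, with MIC scored visually at <10% of full growth.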

In test [6] the test system is N. gonorrhoeae WHO G. Description: Liquid broth MIC in Fastidious broth. In kind it is cell-based. The conditions noted are these: Neisseria gonorrhoeae; N. gonorrhoeae strain WHO G; Fastidious broth; read-out: Minimum Inhibitory Concentration, N. gonorrhoeae WHO G. Summed up:
as §1

The test system of test [7] is N. gonorrhoeae WHO K. Put plainly: Liquid broth MIC in Fastidious broth. The conditions noted are these: Neisseria gonorrhoeae, read-out: Minimum Inhibitory Concentration, N. gonorrhoeae WHO K. The test is classed as cell-based. In short, it runs like this:
as §2

The subject of test [8] is N. gonorrhoeae WHO L. Put plainly: Liquid broth MIC in Fastidious broth. The test is classed as cell-based. The conditions noted are these: Neisseria gonorrhoeae; N. gonorrhoeae strain WHO L; Fastidious broth; read-out: Minimum Inhibitory Concentration, N. gonorrhoeae WHO L. In short, it runs like this: as §1

≈ marks a conversion by molar mass, not a printed value.

T1 sequence (P0AD68 1-577): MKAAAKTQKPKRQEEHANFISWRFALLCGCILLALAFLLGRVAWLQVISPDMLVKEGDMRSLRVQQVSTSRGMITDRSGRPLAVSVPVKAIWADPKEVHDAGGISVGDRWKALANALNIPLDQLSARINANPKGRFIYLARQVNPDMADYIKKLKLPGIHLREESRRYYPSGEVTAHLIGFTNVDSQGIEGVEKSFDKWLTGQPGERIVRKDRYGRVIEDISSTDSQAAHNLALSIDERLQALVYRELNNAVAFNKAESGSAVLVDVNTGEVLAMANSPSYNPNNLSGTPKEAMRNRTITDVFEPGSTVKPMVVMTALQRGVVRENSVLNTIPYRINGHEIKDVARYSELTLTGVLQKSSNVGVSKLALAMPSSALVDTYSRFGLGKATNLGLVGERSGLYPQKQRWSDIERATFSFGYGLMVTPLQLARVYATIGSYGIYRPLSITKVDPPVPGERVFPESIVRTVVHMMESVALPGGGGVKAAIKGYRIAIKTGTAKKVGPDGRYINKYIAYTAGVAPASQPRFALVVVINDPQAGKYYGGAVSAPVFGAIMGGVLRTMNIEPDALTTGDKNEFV
T2 sequence (G3XD46 whole entry): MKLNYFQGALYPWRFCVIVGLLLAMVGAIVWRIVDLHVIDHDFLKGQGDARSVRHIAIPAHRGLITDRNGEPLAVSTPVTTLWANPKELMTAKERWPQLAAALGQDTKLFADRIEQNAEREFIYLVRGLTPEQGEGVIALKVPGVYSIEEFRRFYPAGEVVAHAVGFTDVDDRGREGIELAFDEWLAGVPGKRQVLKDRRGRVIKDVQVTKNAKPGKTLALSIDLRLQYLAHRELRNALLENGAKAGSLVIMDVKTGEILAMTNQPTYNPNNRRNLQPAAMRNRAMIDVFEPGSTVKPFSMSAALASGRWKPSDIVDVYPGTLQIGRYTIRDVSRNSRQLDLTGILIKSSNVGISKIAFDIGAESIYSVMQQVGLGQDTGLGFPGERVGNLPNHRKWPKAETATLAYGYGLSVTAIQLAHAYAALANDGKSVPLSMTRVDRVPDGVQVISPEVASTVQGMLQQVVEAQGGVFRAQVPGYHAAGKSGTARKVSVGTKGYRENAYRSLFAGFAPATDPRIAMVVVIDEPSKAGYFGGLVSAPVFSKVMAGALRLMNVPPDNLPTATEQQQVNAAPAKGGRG

`CCN1CCN(C(=O)NC(C(=O)N[C@H]2Cc3cccc(C(=O)O)c3OB2O)c2cccc([N+](=O)[O-])c2)C(=O)C1=O` (stereo partly drawn) [Example 75, (3R)-3-(2-(4-ethyl-2,3-dioxopiperazine-1-carboxamido)-2-(3-nitrophenyl)acetamido)-2-hydroxy-3,4-dihydro-2H-benzo[e][1,2]oxaborinine-8-carboxylic acid] yielded an EC50 in test [1] of 30 to 500 µM. The “P. aeruginosa PBP3 Potency” value in test [2] was “D (D represents a potency <10 μM)”. The MIC in test [3] is 4 to 8 µg/mL (≈ 7.23 to 14.5 µM); in test [4], 0.25 to 0.5 µg/mL (≈ 0.452 to 0.904 µM); in test [5], greater than 64 µg/mL; in test [6], 4 to 8 µg/mL (≈ 7.23 to 14.5 µM); in test [7], greater than 64 µg/mL; in test [8], greater than 64 µg/mL.

`CCN1CCN(C(=O)NC(C(=O)N[C@H]2Cc3cccc(C(=O)O)c3OB2O)c2cccc(NS(C)(=O)=O)c2)C(=O)C1=O` (stereo partly drawn) [Example 76, (3R)-3-(2-(4-ethyl-2,3-dioxopiperazine-1-carboxamido)-2-(3-(methylsulfonamido)phenyl)acetamido)-2-hydroxy-3,4-dihydro-2H-benzo[e][1,2]oxaborinine-8-carboxylic acid] yielded an EC50 in test [1] of less than 30 µM. In addition, in test [2], the “P. aeruginosa PBP3 Potency” value is listed as “D (D represents a potency <10 μM)”. Also, the MIC was greater than 64 µg/mL in test [3]; 1 to 2 µg/mL (≈ 1.66 to 3.33 µM) in test [4]; greater than 64 µg/mL in test [5]; 16 to 32 µg/mL (≈ 26.6 to 53.2 µM) in test [6]; greater than 64 µg/mL in test [7]; greater than 64 µg/mL in test [8].

`CCN1CCN(C(=O)NC(C(=O)N[C@H]2Cc3cccc(C(=O)O)c3OB2O)c2cc(O)ccc2O)C(=O)C1=O` (stereo partly drawn) [Example 77, (3R)-3-(2-(2,5-dihydroxyphenyl)-2-(4-ethyl-2,3-dioxopiperazine-1-carboxamido)acetamido)-2-hydroxy-3,4-dihydro-2H-benzo[e][1,2]oxaborinine-8-carboxylic acid] showed a concentration for a half-maximal effect (EC50) in test [1] of 30 to 500 µM. In addition, in test [2], the “P. aeruginosa PBP3 Potency” value is “B (B represents a potency between 30 μM and 500 μM inclusive)”. The MIC in test [3] was 16 to 32 µg/mL (≈ 29.6 to 59.2 µM); in test [4], 4 to 8 µg/mL (≈ 7.4 to 14.8 µM); in test [5], greater than 64 µg/mL; in test [6] it was 16 to 32 µg/mL (≈ 29.6 to 59.2 µM); in test [7] it was greater than 64 µg/mL; in test [8], greater than 64 µg/mL.

Turning to `N=C(N)NCCN1CCN(C(=O)NC(C(=O)N[C@H]2Cc3ccc(F)c(C(=O)O)c3OB2O)c2ccc(C(=O)O)c(F)c2)C(=O)C1=O` (stereo partly drawn) [Example 78, (3R)-3-(2-(4-carboxy-3-fluorophenyl)-2-(4-(2-guanidinoethyl)-2,3-dioxopiperazine-1-carboxamido)acetamido)-7-fluoro-2-hydroxy-3,4-dihydro-2H-benzo[e][1,2]oxaborinine-8-carboxylic acid], in test [1], the EC50 lay in the range of 30 to 500 µM. Also, the “P. aeruginosa PBP3 Potency” value in test [2] was “D (D represents a potency <10 μM)”. Besides, the MIC is 16 to 32 µg/mL (≈ 24.8 to 49.6 µM) in test [3]; 4 to 8 µg/mL (≈ 6.2 to 12.4 µM) in test [4]; greater than 64 µg/mL in test [5]; 4 to 8 µg/mL (≈ 6.2 to 12.4 µM) in test [6]; greater than 64 µg/mL in test [7]; greater than 64 µg/mL in test [8].

As for `CC(C)(C)[C@@H](NC(=O)N1CCN(CCNC(=O)c2c(F)cc(O)c(O)c2Cl)C(=O)C1=O)C(=O)N[C@H]1Cc2ccc(F)c(C(=O)O)c2OB1O` [Example 80, (R)-3-((R)-2-(4-(2-(2-chloro-6-fluoro-3,4-dihydroxybenzamido)ethyl)-2,3-dioxopiperazine-1-carboxamido)-3,3-dimethylbutanamido)-7-fluoro-2-hydroxy-3,4-dihydro-2H-benzo[e][1,2]oxaborinine-8-carboxylic acid], the EC50 in test [1] was less than 30 µM. In test [2], the “P. aeruginosa PBP3 Potency” value is “D (D represents a potency <10 μM)”. In addition, the MIC in test [3] is 16 to 32 µg/mL (≈ 22.5 to 45.1 µM); in test [4], 4 to 8 µg/mL (≈ 5.63 to 11.3 µM); in test [5], greater than 64 µg/mL; in test [6], 16 to 32 µg/mL (≈ 22.5 to 45.1 µM); in test [7] it was greater than 64 µg/mL; in test [8] it was greater than 64 µg/mL.

As to `NCCN1CCN(C(=O)NC(C(=O)N[C@H]2Cc3cccc(C(=O)O)c3OB2O)c2cc(Cl)c(O)cc2F)C(=O)C1=O` (stereo partly drawn) [Example 87, (3R)-3-(2-(4-(2-aminoethyl)-2,3-dioxopiperazine-1-carboxamido)-2-(5-chloro-2-fluoro-4-hydroxyphenyl)acetamido)-2-hydroxy-3,4-dihydro-2H-benzo[e][1,2]oxaborinine-8-carboxylic acid], the EC50 in test [1] is less than 30 µM. Also, the “P. aeruginosa PBP3 Potency” value in test [2] is “D (D represents a potency <10 μM)”. Moreover, the MIC was 16 to 32 µg/mL (≈ 27 to 54.1 µM) in test [3]; 0.25 to 0.5 µg/mL (≈ 0.422 to 0.845 µM) in test [4]; greater than 64 µg/mL in test [5]; 4 to 8 µg/mL (≈ 6.76 to 13.5 µM) in test [6]; greater than 64 µg/mL in test [7]; 16 to 32 µg/mL (≈ 27 to 54.1 µM) in test [8].

The molecule `NCCN1CCN(C(=O)N[C@@H](C(=O)N[C@H]2Cc3cccc(C(=O)O)c3OB2O)c2cc(Cl)c(O)cc2Cl)C(=O)C1=O` [Example 90, (R)-3-((R)-2-(4-(2-aminoethyl)-2,3-dioxopiperazine-1-carboxamido)-2-(2,5-dichloro-4-hydroxyphenyl)acetamido)-2-hydroxy-3,4-dihydro-2H-benzo[e][1,2]oxaborinine-8-carboxylic acid] returned an EC50 in test [1] of less than 30 µM. The “P. aeruginosa PBP3 Potency” value in test [2] is “D (D represents a potency <10 μM)”. Further, the MIC was greater than 64 µg/mL in test [3]; 4 to 8 µg/mL (≈ 6.58 to 13.2 µM) in test [4]; greater than 64 µg/mL in test [5]; 16 to 32 µg/mL (≈ 26.3 to 52.6 µM) in test [6]; greater than 64 µg/mL in test [7]; greater than 64 µg/mL in test [8].

Take `NCCN1CCN(C(=O)NC(C(=O)N[C@H]2Cc3cccc(C(=O)O)c3OB2O)c2cc(F)c(O)cc2F)C(=O)C1=O` (stereo partly drawn) [Example 93, (3R)-3-(2-(4-(2-aminoethyl)-2,3-dioxopiperazine-1-carboxamido)-2-(2,5-difluoro-4-hydroxyphenyl)acetamido)-2-hydroxy-3,4-dihydro-2H-benzo[e][1,2]oxaborinine-8-carboxylic acid]: the EC50 in test [1] was less than 30 µM. In addition, the “P. aeruginosa PBP3 Potency” value in test [2] is given as “D (D represents a potency <10 μM)”. Also, the MIC is greater than 64 µg/mL in test [3]; 1 to 2 µg/mL (≈ 1.74 to 3.48 µM) in test [4]; greater than 64 µg/mL in test [5]; 4 to 8 µg/mL (≈ 6.95 to 13.9 µM) in test [6]; greater than 64 µg/mL in test [7]; greater than 64 µg/mL in test [8].

As for `CCN1CCN(C(=O)NC(C(=O)N[C@H]2Cc3cccc(C(=O)O)c3OB2O)c2c(F)cc(O)cc2Cl)C(=O)C1=O` (stereo partly drawn) [Example 95, (3R)-3-(2-(2-chloro-6-fluoro-4-hydroxyphenyl)-2-(4-ethyl-2,3-dioxopiperazine-1-carboxamido)acetamido)-2-hydroxy-3,4-dihydro-2H-benzo[e][1,2]oxaborinine-8-carboxylic acid], in test [1], the EC50 was less than 30 µM. Besides, the “P. aeruginosa PBP3 Potency” value in test [2] was “D (D represents a potency <10 μM)”. Further, the MIC in test [3] was 4 to 8 µg/mL (≈ 6.94 to 13.9 µM); in test [4], less than 0.125 µg/mL; in test [5] it was 16 to 32 µg/mL (≈ 27.7 to 55.5 µM); in test [6] it was 1 to 2 µg/mL (≈ 1.73 to 3.47 µM); in test [7] it was 16 to 32 µg/mL (≈ 27.7 to 55.5 µM); in test [8], 16 to 32 µg/mL (≈ 27.7 to 55.5 µM).

The molecule `CCN1CCN(C(=O)NC(C(=O)N[C@H]2Cc3cccc(C(=O)O)c3OB2O)c2cccc(NC(=O)c3cncnc3)c2)C(=O)C1=O` (stereo partly drawn) [Example 96, (3R)-3-(2-(4-ethyl-2,3-dioxopiperazine-1-carboxamido)-2-(3-(pyrimidine-5-carboxamido)phenyl)acetamido)-2-hydroxy-3,4-dihydro-2H-benzo[e][1,2]oxaborinine-8-carboxylic acid] displayed a half-maximal effective concentration (EC50) in test [1] of 30 to 500 µM. In test [2], the “P. aeruginosa PBP3 Potency” value is “D (D represents a potency <10 μM)”. The MIC in test [3] is greater than 64 µg/mL; in test [4], 4 to 8 µg/mL (≈ 6.36 to 12.7 µM); in test [5], greater than 64 µg/mL; in test [6], 16 to 32 µg/mL (≈ 25.4 to 50.8 µM); in test [7], greater than 64 µg/mL; in test [8], greater than 64 µg/mL.

A word on the EC50: it is the concentration needed to bring the measured effect to its halfway point.
